{
  "source": "patent US8959984B2",
  "about": "“Proteome-wide quantification of small molecule binding to cellular target proteins” (priority 2007, dated 2015)",
  "key": {"[1]": {"molecular_target": "T1, MAP3K2 (Homo sapiens, UniProt Q9Y2U5)", "T1 construct": "endogenous in cells; host or cells: HeLa S3", "T1 sequence (Q9Y2U5 1-619)": "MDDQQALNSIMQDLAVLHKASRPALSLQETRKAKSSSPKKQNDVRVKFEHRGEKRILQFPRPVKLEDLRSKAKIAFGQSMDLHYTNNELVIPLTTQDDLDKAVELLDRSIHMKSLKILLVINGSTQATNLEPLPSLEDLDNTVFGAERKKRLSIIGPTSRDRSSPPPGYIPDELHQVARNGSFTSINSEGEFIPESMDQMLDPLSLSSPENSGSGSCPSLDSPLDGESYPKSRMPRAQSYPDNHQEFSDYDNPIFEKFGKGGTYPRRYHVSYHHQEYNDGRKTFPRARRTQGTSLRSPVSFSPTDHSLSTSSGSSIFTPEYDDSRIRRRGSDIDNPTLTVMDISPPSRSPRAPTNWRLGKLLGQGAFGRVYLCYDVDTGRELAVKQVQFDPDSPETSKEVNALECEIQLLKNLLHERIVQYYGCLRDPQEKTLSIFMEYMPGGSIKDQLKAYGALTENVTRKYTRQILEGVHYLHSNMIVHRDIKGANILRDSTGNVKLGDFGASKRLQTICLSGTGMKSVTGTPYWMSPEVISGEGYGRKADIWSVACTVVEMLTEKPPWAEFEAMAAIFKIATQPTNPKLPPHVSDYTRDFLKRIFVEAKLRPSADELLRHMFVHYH", "assay": "binding to immobilized V16742 (IVA1/IVA2, HeLa lysate, MS)"}, "[2]": {"molecular_target": "T2, MST3 (STK24, IPI00872754) (Homo sapiens, UniProt Q9Y6E0)", "T2 construct": "endogenous in cells; host or cells: HeLa S3 cell lysate", "T2 sequence (Q9Y6E0 whole entry)": "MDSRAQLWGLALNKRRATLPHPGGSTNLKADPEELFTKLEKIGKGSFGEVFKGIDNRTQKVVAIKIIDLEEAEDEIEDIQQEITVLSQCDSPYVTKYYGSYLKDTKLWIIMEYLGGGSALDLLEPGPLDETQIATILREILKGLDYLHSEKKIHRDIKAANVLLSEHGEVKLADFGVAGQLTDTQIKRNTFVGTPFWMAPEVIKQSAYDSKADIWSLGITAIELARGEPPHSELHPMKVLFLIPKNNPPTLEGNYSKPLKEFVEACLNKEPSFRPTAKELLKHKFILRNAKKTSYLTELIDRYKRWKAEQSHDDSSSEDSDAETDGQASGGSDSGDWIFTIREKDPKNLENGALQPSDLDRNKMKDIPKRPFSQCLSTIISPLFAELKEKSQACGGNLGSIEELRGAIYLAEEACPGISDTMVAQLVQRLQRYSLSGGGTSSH", "assay": "binding to VI16742 beads (HeLa lysate, SILAC MS)"}, "[3]": {"molecular_target": "CaMK2g (CAMK2G) (Homo sapiens, UniProt Q13555)", "sequence (Q13555 whole entry)": "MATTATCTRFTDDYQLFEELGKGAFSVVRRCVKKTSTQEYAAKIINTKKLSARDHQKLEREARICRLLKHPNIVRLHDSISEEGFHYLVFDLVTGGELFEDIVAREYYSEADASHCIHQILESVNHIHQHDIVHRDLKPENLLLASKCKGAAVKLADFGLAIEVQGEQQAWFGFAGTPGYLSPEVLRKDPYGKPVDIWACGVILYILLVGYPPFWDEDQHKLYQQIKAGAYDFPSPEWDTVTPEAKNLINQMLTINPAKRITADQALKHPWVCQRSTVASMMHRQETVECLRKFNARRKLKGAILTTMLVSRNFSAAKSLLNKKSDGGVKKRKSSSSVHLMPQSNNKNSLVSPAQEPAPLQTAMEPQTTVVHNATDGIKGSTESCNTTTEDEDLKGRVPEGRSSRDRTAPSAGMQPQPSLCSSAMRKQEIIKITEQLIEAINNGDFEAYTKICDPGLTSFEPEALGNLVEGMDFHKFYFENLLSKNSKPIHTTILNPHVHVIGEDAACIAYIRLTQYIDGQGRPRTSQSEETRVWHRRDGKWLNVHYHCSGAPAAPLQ"}, "[4]": {"molecular_target": "T3, EphB2 (Homo sapiens, UniProt P29323)", "T3 sequence (P29323 19-1055)": "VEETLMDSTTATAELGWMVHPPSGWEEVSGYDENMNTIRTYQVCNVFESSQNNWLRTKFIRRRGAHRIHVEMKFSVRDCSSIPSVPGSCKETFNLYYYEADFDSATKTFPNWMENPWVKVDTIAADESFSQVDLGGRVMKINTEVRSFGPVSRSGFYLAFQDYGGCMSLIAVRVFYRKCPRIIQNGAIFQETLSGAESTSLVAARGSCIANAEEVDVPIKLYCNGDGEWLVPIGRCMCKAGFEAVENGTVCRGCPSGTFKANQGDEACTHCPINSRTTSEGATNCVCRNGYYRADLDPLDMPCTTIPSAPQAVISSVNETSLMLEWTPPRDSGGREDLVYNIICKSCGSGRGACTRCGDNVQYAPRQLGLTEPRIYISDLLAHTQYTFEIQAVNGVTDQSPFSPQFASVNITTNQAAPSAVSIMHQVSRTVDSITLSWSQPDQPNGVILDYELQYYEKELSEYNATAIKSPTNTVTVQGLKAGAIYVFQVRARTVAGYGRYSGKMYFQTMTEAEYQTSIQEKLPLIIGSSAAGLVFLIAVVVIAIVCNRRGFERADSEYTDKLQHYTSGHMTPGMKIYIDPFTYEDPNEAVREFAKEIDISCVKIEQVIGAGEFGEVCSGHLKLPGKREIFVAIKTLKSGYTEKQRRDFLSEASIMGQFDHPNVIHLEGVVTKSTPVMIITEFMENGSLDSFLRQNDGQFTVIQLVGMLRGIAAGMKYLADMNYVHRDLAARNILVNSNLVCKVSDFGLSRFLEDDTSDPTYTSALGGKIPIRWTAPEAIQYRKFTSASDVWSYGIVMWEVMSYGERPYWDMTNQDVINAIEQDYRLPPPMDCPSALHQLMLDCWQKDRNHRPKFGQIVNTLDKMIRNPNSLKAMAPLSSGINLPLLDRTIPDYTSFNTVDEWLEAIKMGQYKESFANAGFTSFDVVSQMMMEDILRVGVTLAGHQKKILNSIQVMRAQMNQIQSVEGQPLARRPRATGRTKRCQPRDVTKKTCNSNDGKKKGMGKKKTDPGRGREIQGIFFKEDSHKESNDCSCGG", "assay": "binding to immobilized V16742 (IVA1/IVA2, HeLa lysate, MS)"}},
  "note": "Where two headings read alike, the source gives them in different places.",
  "data": [
    {"smiles": "CC(C)n1c(=O)ccc2cnc(Nc3ccc(OCCN)cc3)nc21", "note": "[V16742]", "values": [
      {"measurement": "Percent bound at various 16742 conc", "setting": "[1]; Experiment 1, 1.87 μM 16742", "value": 4.06, "unit": "%"},
      {"measurement": "Percent bound at various 16742 conc", "setting": "[1]; Experiment 1, 8.74 μM 16742", "value": 14.72, "unit": "%"},
      {"measurement": "Percent bound at various 16742 conc", "setting": "[1]; Experiment 1, 52 μM 16742", "value": 49.07, "unit": "%"},
      {"measurement": "Kd", "setting": "[1]; Experiment 1, read-out: Kd", "value": 53.2, "unit": "µM"},
      {"measurement": "Percent bound at various 16742 conc", "setting": "[1]; Experiment 2, 1.87 μM 16742", "value": 3.52, "unit": "%"},
      {"measurement": "Percent bound at various 16742 conc", "setting": "[1]; Experiment 2, 8.74 μM 16742", "value": 14.47, "unit": "%"},
      {"measurement": "Percent bound at various 16742 conc", "setting": "[1]; Experiment 2, 52 μM 16742", "value": 48.40, "unit": "%"},
      {"measurement": "Kd", "setting": "[1]; Experiment 2, read-out: Kd", "value": 54.7, "unit": "µM"},
      {"measurement": "Kd", "setting": "[1]; average of two experiments, read-out: Kd Avg", "value": 53.9, "unit": "µM"},
      {"measurement": "r (5 h/2.5 h INC. TIME)", "setting": "[2]; 5 h vs 2.5 h incubation time", "value": 1.41},
      {"measurement": "rAVERAGE (CTRL/1 INC)", "setting": "[2]; control beads vs first incubation", "value": 0.06},
      {"measurement": "Ki", "setting": "[2]; immobilized VI16742", "value": 89.8, "unit": "µM"},
      {"measurement": "rAVERAGE (2 INC/1 INC)", "setting": "[2]; second vs first incubation", "value": 0.63}
    ]},
    {"smiles": "COc1cc2ncnc(Nc3ccc(F)c(Cl)c3)c2cc1OCCCN1CCOCC1", "note": "[gefitinib]", "values": [
      {"measurement": "rAVERAGE (10 nM/0 nM Gef.)", "setting": "[3]", "value": 0.95},
      {"measurement": "rAVERAGE (100 nM/0 nM Gef.)", "setting": "[3]", "value": 1.08},
      {"measurement": "rAVERAGE (1000 nM/0 nM Gef.)", "setting": "[3]", "value": 1.01},
      {"measurement": "rAVERAGE (10000 nM/0 nM Gef.)", "setting": "[3]", "value": 0.92}
    ]},
    {"smiles": "CC(C)n1c(=O)ccc2cnc(Nc3ccc(OCCN)cc3)nc21", "note": "[compound 16742]", "values": [
      {"measurement": "Percent bound at 1.87 μM 16742 conc", "setting": "[4]; EXPERIMENT 1", "value": 4.79, "unit": "%"},
      {"measurement": "Percent bound at 8.74 μM 16742 conc", "setting": "[4]; EXPERIMENT 1", "value": 17.01, "unit": "%"},
      {"measurement": "Percent bound at 52 μM 16742 conc", "setting": "[4]; EXPERIMENT 1", "value": 66.97, "unit": "%"},
      {"measurement": "Kd", "setting": "[4]; EXPERIMENT 1, read-out: Kd", "value": 30.6, "unit": "µM"},
      {"measurement": "Percent bound at 1.87 μM 16742 conc", "setting": "[4]; EXPERIMENT 2", "value": 2.86, "unit": "%"},
      {"measurement": "Percent bound at 8.74 μM 16742 conc", "setting": "[4]; EXPERIMENT 2", "value": 13.05, "unit": "%"},
      {"measurement": "Percent bound at 52 μM 16742 conc", "setting": "[4]; EXPERIMENT 2", "value": 57.74, "unit": "%"},
      {"measurement": "Kd", "setting": "[4]; EXPERIMENT 2, read-out: Kd", "value": 42.3, "unit": "µM"},
      {"measurement": "Kd", "setting": "[4]; read-out: Kd Avg", "value": 36.5, "unit": "µM"}
    ]}
  ]
}
